From patent US9023789B2, “Amylin analogs and pharmaceutical compositions thereof” (Novo Nordisk A/S, priority 2012, dated 2015)
Numbered stars: 1 amine (or outer) side, 2 acyl side, 3 side chain; on linkers, the order of the positions; unused ones are H or OH. Bridge positions count the residues as written; N and C are the ends. Side chains are listed from the residue outwards. Peptide text beside a SMILES is read from it. * marks the point of attachment. C20 diacid = O=C(O)CCCCCCCCCCCCCCCCCCC(=O)*; γGlu = O=C(O)[C@H](CCC(=O)[*:2])N[*:1]

Experiments:
rat calcitonin receptor = molecular target: T1, rat calcitonin receptor (Rattus norvegicus, UniProt P32214); test: ASSAY (VIII) binding to the rat calcitonin receptor; settings: Table 7, read-out: rCTR bind IC50
T1 construct: expressed in transfected cells; host or cells: BHK tk'ts 13 (transient, FuGENE 6), membranes
T1 sequence (P32214 25-479 isoform P32214-2 limits assumed): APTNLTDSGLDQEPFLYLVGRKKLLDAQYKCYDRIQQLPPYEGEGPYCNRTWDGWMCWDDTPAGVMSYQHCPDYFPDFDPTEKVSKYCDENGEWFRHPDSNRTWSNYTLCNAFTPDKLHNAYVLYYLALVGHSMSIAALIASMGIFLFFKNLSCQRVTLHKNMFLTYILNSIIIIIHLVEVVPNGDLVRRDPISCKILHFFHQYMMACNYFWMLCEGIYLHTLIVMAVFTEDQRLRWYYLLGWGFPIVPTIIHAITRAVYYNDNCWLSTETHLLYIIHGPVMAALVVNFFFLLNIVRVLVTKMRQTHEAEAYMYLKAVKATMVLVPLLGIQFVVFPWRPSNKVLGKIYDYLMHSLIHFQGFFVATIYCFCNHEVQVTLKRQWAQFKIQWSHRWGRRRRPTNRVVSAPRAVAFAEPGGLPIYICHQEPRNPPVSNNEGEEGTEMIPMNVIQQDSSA
Procedure, shortened: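 Receptor source: membranes from transiently transfected BHK tk′ts 13 cells expressing rat calcitonin receptor, collected roughly 48 hours after transfection.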

[1] = molecular target: T2, human amylin receptor (membranes from Amylin 3(a)/CRE-luc cells) (Homo sapiens, UniProt O60896+P30988); test: ASSAY (V) binding to the human amylin receptor (SPA, 125I-rat amylin);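 note: competition binding of cell membranes (35 ng/µL) mixed with SPA beads in 384-well plates at 40 µL total volume, read by scintillation counting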
T2 construct: expressed in transfected cells
T2 sequence (P30988 25-474): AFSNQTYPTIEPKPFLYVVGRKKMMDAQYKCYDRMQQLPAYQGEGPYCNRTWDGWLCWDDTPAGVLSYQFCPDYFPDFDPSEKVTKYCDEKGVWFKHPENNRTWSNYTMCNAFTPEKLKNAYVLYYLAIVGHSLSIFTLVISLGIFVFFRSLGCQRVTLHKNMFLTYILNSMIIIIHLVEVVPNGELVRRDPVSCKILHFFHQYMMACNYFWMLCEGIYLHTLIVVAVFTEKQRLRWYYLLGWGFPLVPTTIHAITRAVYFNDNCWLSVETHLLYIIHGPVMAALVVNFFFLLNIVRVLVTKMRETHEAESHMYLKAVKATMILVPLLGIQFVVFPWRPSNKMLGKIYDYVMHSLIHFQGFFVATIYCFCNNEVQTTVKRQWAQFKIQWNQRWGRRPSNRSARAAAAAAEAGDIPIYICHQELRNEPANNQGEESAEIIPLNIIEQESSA
T2 sequence (O60896 24-148 partner): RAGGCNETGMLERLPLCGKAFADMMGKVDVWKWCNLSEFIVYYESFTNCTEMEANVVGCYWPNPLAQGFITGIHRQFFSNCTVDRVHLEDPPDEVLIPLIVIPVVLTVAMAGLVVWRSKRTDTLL

[2] = molecular target: T3, human amylin 3(a) receptor (human calcitonin receptor + RAMP-3) in BHK570 cells (Homo sapiens, UniProt O60896+P30988); test: ASSAY (II)a functional assay, human amylin receptor (CRE luciferase); format: cell-based
T3 construct: expressed in transfected cells
Procedure, shortened: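 Read-out: CRE-driven luciferase luminescence, single photon counting, after 30 min at room temperature with LucLite. BHK cells expressed calcitonin receptor alone or with RAMP-3 (amylin 3(a)). Cells were stimulated 3 h at 37° C in DMEM, 10% FBS, 10 mM Hepes, pH 7.4.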

[3] = Table 5, selectivity, hCTR bind IC50 / hAmylin-R bind IC50
[4] = Table 5a, selectivity, hCTR bind IC50 / hAmylin-R bind IC50
[5] = Table 5b, selectivity, hCTR bind IC50 / hAmylin-R bind IC50
[6] = Table 5c, selectivity, hCTR bind IC50 / hAmylin-R bind IC50
[7] = Table 7, human binding selectivity, included for comparison
[8] = Table 7a (preferred compounds), human binding selectivity, included for comparison
[9] = ratio of human calcitonin receptor binding IC50 to human amylin receptor binding IC50
[10] = hCTR funct. EC50 divided by hAmylin-R funct. EC50
[11] = hCTR funct. EC50 over hAmylin-R funct. EC50
[12] = human functional selectivity: hCTR funct. EC50 / hAmylin-R funct. EC50

Row | Compound | IC50 (rat calcitonin receptor) [nM] | Ratio hCT/hAmylin binding [1, 3] | Ratio hCT/hAmylin binding [1, 4] | Ratio hCT/hAmylin binding [1, 5] | Ratio hCT/hAmylin binding [1, 6] | Ratio hCT/hAmylin binding [1, 7] | Ratio hCT/hAmylin binding [1, 8] | Ratio hCT/hAmylin binding [1, 9] | Ratio hCT/hAmylin funct. [2, 10] | Ratio hCT/hAmylin funct. [2, 11] | Ratio hCT/hAmylin funct. [2, 12] | Ratio hCT/hAmylin funct. ([2]; hCTR funct. EC50 / hAmylin-R funct. EC50) | IC50 ([1]; Table 4, read-out: hAmylin-R bind IC50) [nM] | EC50 ([2]; human amylin receptor functional potency, assay (II), read-out: hAmylin-R funct. EC50) [nM]
1 | CC[C@H](C)[C@H](NC(=O)[C@H](C)NC(=O)CNC(=O)[C@H](Cc1ccccc1)NC(=O)[C@H](CC(N)=O)NC(=O)[C@@H]1CCCN1C(=O)[C@H](CO)NC(=O)[C@H](CO)NC(=O)[C@H](Cc1c[nH]cn1)NC(=O)[C@H](CCCNC(=N)N)NC(=O)[C@H](CC(C)C)NC(=O)[C@H](Cc1ccccc1)NC(=O)[C@H](CC(=O)O)NC(=O)[C@H](C)NC(=O)[C@H](CC(C)C)NC(=O)[C@H](CCCNC(=N)N)NC(=O)[C@H](CCC(N)=O)NC(=O)[C@@H](NC(=O)[C@H](C)NC(=O)[C@@H]1CSSC[C@H](NC(=O)[C@@H](N)CCCCNC(=O)CC[C@H](NC(=O)CC[C@H](NC(=O)CCCCCCCCCCCCCCCCCCC(=O)O)C(=O)O)C(=O)O)C(=O)N[C@@H](CC(N)=O)C(=O)N[C@@H]([C@@H](C)O)C(=O)N[C@@H](C)C(=O)N[C@@H]([C@@H](C)O)C(=O)N1)[C@@H](C)O)C(=O)N1CCC[C@H]1C(=O)N[C@@H](CO)C(=O)N[C@@H](CO)C(=O)N[C@H](C(=O)N[C@@H](CC(N)=O)C(=O)N[C@H](C(=O)NCC(=O)N1CCC[C@H]1C(=O)N[C@@H](CCC(=O)O)C(=O)N[C@H](C(=O)N[C@@H](Cc1ccc(O)cc1)C(N)=O)[C@@H](C)O)C(C)C)[C@@H](C)O [Example 122] (H-K([γGlu-γGlu-C20 diacid])CNTATCATQRLADFLRHSSPNFGAIPSSTNVGPETY-NH2; disulfide 2-7 (inferred); N-terminus assumed) | 31.9 | 49.8 | 49.8 | 49.8 | 49.8 | 49.8 | 49.8 | 49.8 | 5.3 | 5.3 | 5.3 | – | – | –
2 | CC[C@H](C)[C@H](NC(=O)[C@H](C)NC(=O)CNC(=O)[C@H](Cc1ccccc1)NC(=O)[C@H](CC(N)=O)NC(=O)[C@@H]1CCCN1C(=O)[C@H](CO)NC(=O)[C@H](CO)NC(=O)[C@H](Cc1c[nH]cn1)NC(=O)[C@H](CCCNC(=N)N)NC(=O)[C@H](CC(C)C)NC(=O)[C@H](Cc1ccccc1)NC(=O)[C@H](Cc1c[nH]cn1)NC(=O)[C@H](C)NC(=O)[C@H](CC(C)C)NC(=O)[C@H](CCCNC(=N)N)NC(=O)[C@H](CCC(N)=O)NC(=O)[C@@H](NC(=O)[C@H](C)NC(=O)[C@@H]1CSSC[C@H](NC(=O)[C@H](CCCCN)NC(=O)CC[C@H](NC(=O)CCCCCCCCCCCCCCCCCCC(=O)O)C(=O)O)C(=O)N[C@@H](CC(N)=O)C(=O)N[C@@H]([C@@H](C)O)C(=O)N[C@@H](C)C(=O)N[C@@H]([C@@H](C)O)C(=O)N1)[C@@H](C)O)C(=O)N1CCC[C@H]1C(=O)N[C@@H](CO)C(=O)N[C@@H](CO)C(=O)N[C@H](C(=O)N[C@@H](CC(N)=O)C(=O)N[C@H](C(=O)NCC(=O)N[C@@H](CO)C(=O)N[C@@H](CCC(=O)O)C(=O)N[C@H](C(=O)N[C@@H](Cc1ccc(O)cc1)C(N)=O)[C@@H](C)O)C(C)C)[C@@H](C)O [Example 30] ({C20 diacid-γGlu}-KCNTATCATQRLAHFLRHSSPNFGAIPSSTNVGSETY-NH2; disulfide 2-7) | 114 | 23.6 | 23.6 | 23.6 | 23.6 | 23.6 | 23.6 | 23.6 | 12.6 | 12.6 | 12.6 | – | – | –
3 | CC[C@H](C)[C@H](NC(=O)[C@H](C)NC(=O)CNC(=O)[C@H](Cc1ccccc1)NC(=O)[C@H](CC(N)=O)NC(=O)[C@@H]1CCCN1C(=O)[C@H](CO)NC(=O)[C@H](CO)NC(=O)[C@H](Cc1c[nH]cn1)NC(=O)[C@H](CCCNC(=N)N)NC(=O)[C@H](CC(C)C)NC(=O)[C@H](Cc1ccccc1)NC(=O)[C@H](CCC(=O)O)NC(=O)[C@H](C)NC(=O)[C@H](CC(C)C)NC(=O)[C@H](CCCNC(=N)N)NC(=O)[C@H](CCC(N)=O)NC(=O)[C@@H](NC(=O)[C@H](C)NC(=O)[C@@H]1CSSC[C@H](NC(=O)[C@@H](N)CCCCNC(=O)CC[C@H](NC(=O)CCCCCCCCCCCCCCCCCCC(=O)O)C(=O)O)C(=O)N[C@@H](CC(N)=O)C(=O)N[C@@H]([C@@H](C)O)C(=O)N[C@@H](C)C(=O)N[C@@H]([C@@H](C)O)C(=O)N1)[C@@H](C)O)C(=O)N1CCC[C@H]1C(=O)N[C@@H](CO)C(=O)N[C@@H](CO)C(=O)N[C@H](C(=O)N[C@@H](CC(N)=O)C(=O)N[C@H](C(=O)NCC(=O)N[C@@H](CO)C(=O)N[C@@H](CC(N)=O)C(=O)N[C@H](C(=O)N1CCC[C@H]1C(N)=O)[C@@H](C)O)C(C)C)[C@@H](C)O [Example 12] (H-K([γGlu-C20 diacid])CNTATCATQRLAEFLRHSSPNFGAIPSSTNVGSNTP-NH2; disulfide 2-7 (inferred); N-terminus assumed) | 2.71 | 2.5 | – | – | – | 2.5 | – | – | 1.8 | 1.8 | 1.8 | 1.8 | – | –
4 | CC[C@H](C)[C@H](NC(=O)[C@H](C)NC(=O)CNC(=O)[C@H](Cc1ccccc1)NC(=O)[C@H](CC(N)=O)NC(=O)[C@@H]1CCCN1C(=O)[C@H](CO)NC(=O)[C@H](CO)NC(=O)[C@H](Cc1c[nH]cn1)NC(=O)[C@H](CCCNC(=N)N)NC(=O)[C@H](CC(C)C)NC(=O)[C@H](Cc1ccccc1)NC(=O)[C@H](CCC(=O)O)NC(=O)[C@H](C)NC(=O)[C@H](CC(C)C)NC(=O)[C@H](CCCNC(=N)N)NC(=O)[C@H](CCC(N)=O)NC(=O)[C@@H](NC(=O)[C@H](C)NC(=O)[C@@H]1CSSC[C@H](NC(=O)[C@H](CCCCN)NC(=O)CC[C@H](NC(=O)CCCCCCCCCCCCCCCCCCC(=O)O)C(=O)O)C(=O)N[C@@H](CC(N)=O)C(=O)N[C@@H]([C@@H](C)O)C(=O)N[C@@H](C)C(=O)N[C@@H]([C@@H](C)O)C(=O)N1)[C@@H](C)O)C(=O)N1CCC[C@H]1C(=O)N[C@@H](CO)C(=O)N[C@@H](CO)C(=O)N[C@H](C(=O)N[C@@H](CC(N)=O)C(=O)N[C@H](C(=O)NCC(=O)N[C@@H](Cc1c[nH]cn1)C(=O)N[C@@H](CC(N)=O)C(=O)N[C@H](C(=O)N[C@@H](Cc1ccc(O)cc1)C(N)=O)[C@@H](C)O)C(C)C)[C@@H](C)O [Example 17] ({C20 diacid-γGlu}-KCNTATCATQRLAEFLRHSSPNFGAIPSSTNVGHNTY-NH2; disulfide 2-7 (inferred)) | 97.2 | 12.5 | 12.5 | – | – | 12.5 | 12.5 | 12.5 | 8.8 | 8.8 | 8.8 | – | 0.878 | 0.268
